doi:10.1101/2024.06.05.597555v1 (biorxiv, 2024)
Like-named read-outs stand apart in the source and are kept apart here.

Columns and labels:
[1] = target: T1, DENV2proHeLa NS2B-NS3 protease (Dengue virus 2 Thailand/16681/84, UniProt P29990); test: cell-based; set-up: species or system DENV2proHeLa (HeLa); settings: HeLa, read-out: % inhibition
in vitro [2] = test: in vitro; set-up: species or system DENV2proHeLa (HeLa); settings: human, denv2prohela cells
[3] = target: T2, NS2B(H)-NS3pro (DENV-2 NS2B-NS3 protease) (Dengue virus 2 Thailand/NGS-C/1944, UniProt P14340); settings: read-out: IC50 (C7.5-HEPES AMC); AMC substrate, HEPES pH 7.5, CHAPS; inhibitor
T2 sequence (P14340 1394-1433 limits assumed): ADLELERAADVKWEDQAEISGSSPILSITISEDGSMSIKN
T2 sequence (P14340 1476-1660 limits assumed): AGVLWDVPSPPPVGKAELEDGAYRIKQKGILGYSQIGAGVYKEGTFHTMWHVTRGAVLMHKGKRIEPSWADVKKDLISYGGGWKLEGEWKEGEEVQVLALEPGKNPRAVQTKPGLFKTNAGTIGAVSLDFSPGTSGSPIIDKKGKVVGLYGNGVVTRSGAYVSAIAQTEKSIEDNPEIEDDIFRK

[4] = target: T1, DENV2proHeLa NS2B-NS3 protease; test: cell-based; set-up: species or system DENV2proHeLa (HeLa)
[5] = target: T2, NS2B(H)-NS3pro (DENV-2 NS2B-NS3 protease); test: biochemical; settings: read-out: % inhibition
[6] = target: T2, NS2B(H)-NS3pro (DENV-2 NS2B-NS3 protease); test: biochemical; settings: read-out: % inhibition; remark: listed apart in the source
[7] = target: T2, NS2B(H)-NS3pro (DENV-2 NS2B-NS3 protease); test: biochemical; settings: read-out: % inhibition; remark: listed apart in the source
DENV-2 = test: microbe, parasite or virus in culture; settings: Dengue virus, DENV2, Vero, 48 h, read-out: % inhibition
in vitro [8] = test: in vitro; set-up: species or system DENV2proHeLa (HeLa); settings: human, denv2prohela cells; remark: listed apart in the source
[9] = target: T1, DENV2proHeLa NS2B-NS3 protease; test: cell-based; set-up: species or system DENV2proHeLa (HeLa); settings: HeLa, read-out: % inhibition; remark: listed apart in the source
[10] = target: T2, NS2B(H)-NS3pro (DENV-2 NS2B-NS3 protease); test: biochemical; settings: read-out: % inhibition; remark: listed apart in the source
[11] = target: T1, DENV2proHeLa NS2B-NS3 protease; test: cell-based
[12] = target: T2, NS2B(H)-NS3pro (DENV-2 NS2B-NS3 protease); test: fluorometric protease assay, AMC substrate; type: biochemical; settings: pH 7.5, HEPES, CHAPS; substrate Bz-nKRR-AMC
[13] = target: T2, NS2B(H)-NS3pro (DENV-2 NS2B-NS3 protease); test: fluorometric protease assay, AMC substrate; type: biochemical; settings: read-out: % inhibition at 50 μM
[14] = target: T1, DENV2proHeLa NS2B-NS3 protease; test: cell-based; set-up: species or system DENV2proHeLa (HeLa); settings: HeLa, read-out: % inhibition; remark: listed apart in the source
in vitro [15] = test: in vitro; set-up: species or system DENV2proHeLa (HeLa); settings: human, denv2prohela cells; remark: listed apart in the source
[16] = target: T1, DENV2proHeLa NS2B-NS3 protease; test: cell-based; set-up: species or system DENV2proHeLa (HeLa); settings: read-out: DENV2proHeLa EC50; inhibitor

T1 sequence (P29990 1476-2093 limits assumed): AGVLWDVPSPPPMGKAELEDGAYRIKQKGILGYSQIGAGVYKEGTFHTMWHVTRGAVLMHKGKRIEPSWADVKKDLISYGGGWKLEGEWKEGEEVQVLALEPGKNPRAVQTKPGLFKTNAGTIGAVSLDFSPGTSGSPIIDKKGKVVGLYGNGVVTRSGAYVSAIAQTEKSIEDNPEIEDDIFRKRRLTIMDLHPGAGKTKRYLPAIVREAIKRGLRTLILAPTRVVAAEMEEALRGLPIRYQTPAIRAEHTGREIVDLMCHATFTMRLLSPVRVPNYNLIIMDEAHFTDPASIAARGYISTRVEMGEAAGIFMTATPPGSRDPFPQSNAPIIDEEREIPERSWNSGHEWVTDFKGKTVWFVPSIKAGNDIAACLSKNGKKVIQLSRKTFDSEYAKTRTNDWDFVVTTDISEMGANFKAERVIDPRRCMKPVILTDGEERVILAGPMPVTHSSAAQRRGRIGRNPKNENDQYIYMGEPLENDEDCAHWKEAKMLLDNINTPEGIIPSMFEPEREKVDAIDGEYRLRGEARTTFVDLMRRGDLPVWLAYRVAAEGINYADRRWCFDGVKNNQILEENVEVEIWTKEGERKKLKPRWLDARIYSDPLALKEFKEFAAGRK
T1 sequence (P29990 1346-1475 partner limits assumed): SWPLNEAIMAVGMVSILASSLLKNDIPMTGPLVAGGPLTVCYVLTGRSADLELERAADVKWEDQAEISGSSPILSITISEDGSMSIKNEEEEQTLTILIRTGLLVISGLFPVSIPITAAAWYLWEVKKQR

**Q.** For `NC(=O)c1cccc(NC(=O)[C@@H](NC(=O)C2COc3ccccc3C2)c2ccc(OCc3ccccc3)cc2)c1` (stereo partly drawn) [compound 26, 26], which inhibition at 12.5 µM [1] is on record?
**A.** Its inhibition at 12.5 µM is 77%.

**Q.** And the CC50 (in vitro [2])?
**A.** Its CC50 is > 50 µM.

**Q.** What about the IC50 [3] of the same compound?
**A.** Its IC50 is 16 µM.

**Q.** And the EC50 [4]?
**A.** The EC50 was 6.8 µM.

**Q.** What about the inhibition at 50 µM [5] of the same compound?
**A.** Its inhibition at 50 µM is 88%.

**Q.** Which inhibition at 50 µM [6] does the source give for `CCCCCC(=O)N[C@H](C(=O)NCc1ccc(NC(=N)N)cc1)c1ccc(OCc2ccccc2)cc1` [NK-189] here?
**A.** The inhibition at 50 µM was 97%.

**Q.** What about the inhibition at 50 µM [7] of the same compound?
**A.** Its inhibition at 50 µM is 95%.

**Q.** And the inhibition at 25 µM (DENV-2)?
**A.** The inhibition at 25 µM was 21%.

**Q.** For `CCCCC(CC)C(=O)N[C@H](C(=O)Nc1cccc(C(N)=O)c1)c1ccc(OCc2ccccc2)cc1` (stereo partly drawn) [compound 20, 20], which inhibition at 12.5 µM [1] is on record?
**A.** The inhibition at 12.5 µM was 63%.

**Q.** And the CC50 (in vitro [2])?
**A.** The CC50 was > 50 µM.

**Q.** What about the IC50 [3] of the same compound?
**A.** The IC50 was 22 µM.

**Q.** What about the inhibition at 25 µM (DENV-2) of the same compound?
**A.** The inhibition at 25 µM was 90%.

**Q.** What about the EC50 ([4]; read-out: DENV2proHeLa EC50, inhibitor) of the same compound?
**A.** The EC50 was 11 µM.

**Q.** What does the source list for `CC(C(=O)NC(Cc1c[nH]c2ccccc12)C(=O)Nc1cccc(C(N)=O)c1)c1ccc2c(c1)[nH]c1ccc(Cl)cc12` (stereo not drawn) [compound 67, 67]?
**A.** CC50 (in vitro [8]): 16 µM; inhibition at 12.5 µM [9]: 91%; inhibition at 50 µM [10]: 91%

**Q.** For `NC(=O)c1cccc(NC(=O)C(Cc2ccc(OCc3ccc4ccccc4c3)cc2)NC(=O)c2ccc(Oc3ccccc3)cc2)c1` (stereo not drawn) [compound 63], which EC50 [11] is on record?
**A.** Its EC50 is 5.1 µM.

**Q.** And the IC50 [12]?
**A.** The IC50 was 4.8 µM.

**Q.** And the CC50 (in vitro [8])?
**A.** Its CC50 is 16 µM.

**Q.** What about the inhibition at 12.5 µM [9] of the same compound?
**A.** The inhibition at 12.5 µM was 82%.

**Q.** What about the inhibition at 50 µM [10] of the same compound?
**A.** The inhibition at 50 µM was 100%.

**Q.** Which inhibition at 50 µM [13] does the source give for `CCCCCC(=O)N[C@H](C(=O)Nc1cccc(C(N)=O)c1)c1ccc(OCc2ccccc2)cc1` [compound 2] here?
**A.** The inhibition at 50 µM was 64 ± 5.1%.

**Q.** For `NC(=O)c1cccc(NC(=O)C(Cc2c[nH]c3ccccc23)NC(=O)c2ccc(Oc3ccccc3)cc2)c1` (stereo not drawn) [compound 69, 69], which CC50 (in vitro [8]) is on record?
**A.** Its CC50 is > 50 µM.

**Q.** What about the inhibition at 12.5 µM [9] of the same compound?
**A.** Its inhibition at 12.5 µM is 65%.

**Q.** And the inhibition at 50 µM [10]?
**A.** The inhibition at 50 µM was 80%.

**Q.** With `COc1cc(CC(=O)N[C@H](C(=O)Nc2cccc(C(N)=O)c2)c2ccc(OCc3ccccc3)cc2)cc(OC)c1OC` [compound 31] as the compound, how does the inhibition at 12.5 µM [14] read?
**A.** Its inhibition at 12.5 µM is 75%.

**Q.** And the CC50 (in vitro [15])?
**A.** The CC50 was > 50 µM.

**Q.** What about the inhibition at 50 µM [13] of the same compound?
**A.** The inhibition at 50 µM was 76%.

**Q.** And the EC50 [16]?
**A.** The EC50 was 12 µM.

**Q.** And the inhibition at 25 µM (DENV-2)?
**A.** Its inhibition at 25 µM is 11%.
